Several values for one entry are separate records, joined by “and”; a condition that tells them apart may be missing. Equal entries are not always repeated. Where two headings read alike, the source gives them in different places.
Assays:
[1] = system: oedema produced by crystals of urate in the hind paw of the rat; type: in vivo, Sprague Dawely female rats; settings: for % of inhibition of edema / Difference in weight between left and right leg (Average ± standard deviation of mean term): three subcutaneous injections, 6 h after urate; for protection against the oedema produced by crystals of urate (in words): colchicine 2 mg/kg, derivative 6 mg/kg
Experimental: The anti-gout activity has also been studied "in vivo" with the rat by investigating the inhibition of oedema induced in the hind paw through local injection of sodium urate.
8 g of uric acid (puriss Fluka A.G. Buchs S.G.) were added to 1,600 ml of boiling water and the pH of the solution was adjusted to 7.4 with 20 % of sodium hydroxyde NaOH. The solution was heated up to 95° C and allowed to cool down to the room temperature of the laboratory while being slightly stirred for 7 to 8 hours. The crystals of sodium urate were recovered through filtration on a Buchner filter and air-dried. The formation of crystals was confirmed through microscopic examination.
Sprague Dawely female rats having an average weight of 200 g were used for this investigation.
The oedema was produced through injection into the plantar arch of the left hind foot or leg of 0.1 ml of a suspension of crystals of sodium urate in a physiological salt solution (100 mg/ml). An equal volume of saline solution was injected into the right foot or leg as a control.
Colchicine and the derivative in ethanolic solution were injected through the subcutaneous way.
Three injections with the same dose were carried out 0.2 and 4 hours after the injection of crystals of urate. The volume injected ranged from 3.5 to 6 ml/kg each time. The reference rats also received three injections of a solution containing the same concentration in ethanol.
Six hours after the injection of the crystals of urate, the rats were killed through decapitation, the hind legs were amputated at the ankle and weighed.

[2] = General toxicity statement (LD50 and toxicity relative to thiocolchicine and colchicine); settings: in vivo; of the weight of the body of animals
[3] = system: animals; assay: as above; settings: in vivo
[4] = system: viruses; assay: Antiviral activity (statement); settings: general statement
[5] = system: human leucocytes; settings: for number of leucocytes with increasing amounts (in words): 72 hours; for number of leucocytes in absence or presence of substance (in words): very approximative
Experimental: Contrary to the previous experiment in which different volumes of a solution of a given concentration have been added, in this experiment the various concentrations were prepared through dilution of a concentrated solution in order to add a same volume of methanol to each culture.

[6] = system: leucocytes from rats; settings: individual rat, 2 mg/kg oral
Experimental: These rats had been kept fasting from the evening before.
During this experimentation a counting of the leucocytes as well as a leucocytic distribution were made before administration and 6 hours after administration of the substances. Moreover as a cytoxicity index, a measurement of the viability of leucocytes obtained 6 hours after administration was carried out by means of the staining test with Trypan blue.

[7] = system: phagocytosis; settings: literature, cited from earlier work
[8] = system: mouse; settings: intraperitoneal, literature; cited from earlier work
[9] = system: man; settings: may sometimes be of 6 mg only, literature; cited from earlier work
[10] = system: rat; settings: intravenous, literature; cited from earlier work
[11] = system: cat; settings: intravenous, literature; cited from earlier work
[12] = Table 9, C1 = 2.5 μg/ml, control 412,500
[13] = Table 9, C3 = 10 μg/ml, control 412,500
[14] = Table 9, C5 = 30 μg/ml, control 412,500
[15] = Table 9, C6 = 50 μg/ml, control 412,500
[16] = Table 11, Culture I, C3 = 10 μg/ml
[17] = Table 11, Culture I, C6 = 50 μg/ml
[18] = Table 11, Culture II, C1 = 2.5 μg/ml
[19] = Table 11, Culture II, C3 = 10 μg/ml
[20] = Table 11, Culture II, C5 = 30 μg/ml
[21] = Table 11, Culture II, C6 = 50 μg/ml (two values given)
[22] = 6 hours after administration, 2 mg/kg

Structure (SMILES): COc1cc2c(c(OC)c1OC)-c1ccc(SC)c(=O)cc1C(NC(=O)C13CC4CC(CC(C4)C1)C3)CC2 (single isomer, unassigned) [Derivative, N-desacetyl-N-adamantoyl-thiocolchicine]
- % of inhibition of edema ([1]; 2 mg/kg): 10%
- Difference in weight between left and right leg (Average ± standard deviation of mean term) ([1]; 2 mg/kg): 0.264 ± 0.031 g
- % of inhibition of edema ([1]; 6 mg/kg): 50%
- Difference in weight between left and right leg (Average ± standard deviation of mean term) ([1]; 6 mg/kg): 0.145 ± 0.019 g
- protection against the oedema produced by crystals of urate (in words) [1]: significant protection
- LD50 [2]: ~3000 mg/kg
- high toxicity relative to colchicine [3]: about 3,000 times less than that of colchicine
- toxicity relative to thiocolchicine [3]: 30 times less toxic than thiocolchicine
- activity against viruses (in words) [4]: active against many viruses
- number of leucocytes with increasing amounts (in words) ([5]; Table 9): still further lowered with the same amounts of the derivative
- Count of leucocytes after 72 hours [5, 12]: 487,000
- Count of leucocytes after 72 hours [5, 13]: 360,000
- Count of leucocytes after 72 hours [5, 14]: 180,000
- Count of leucocytes after 72 hours [5, 15]: 157,000
- Count of leucocytes after 72 hours [5, 16]: 430,000
- Count of leucocytes after 72 hours [5, 17]: 515,000
- Count of leucocytes after 72 hours [5, 18]: 140,000
- Count of leucocytes after 72 hours [5, 19]: 200,000
- Count of leucocytes after 72 hours [5, 20]: 245,000
- Count of leucocytes after 72 hours [5, 21]: 290,000 and 345,000
- number of leucocytes in absence or presence of substance (in words) ([5]; Table 11): remain substantially the same
- Basophils ([6]; 6 hours after administration): 0
- Eosinophils ([6]; 6 hours after administration): 0
- Lymphocytes [6, 22]: 94 and 82 and 86
- Basophils ([6]; before administration): 0
- Eosinophils ([6]; before administration): 0
- Lymphocytes ([6]; before administration, 2 mg/kg): 84 and 90 and 82
- Monocytes ([6]; before administration, 2 mg/kg): 2 and 1
- Neutrophils with segmented nucleus ([6]; before administration, 2 mg/kg): 12 and 8

Structure (SMILES): COc1cc2c(c(OC)c1OC)-c1ccc(OC)c(=O)cc1[C@@H](NC(C)=O)CC2 [Colchicine, colchicine, reference compound]
- % of inhibition of edema ([1]; 2 mg/kg): 48%
- Difference in weight between left and right leg (Average ± standard deviation of mean term) ([1]; 2 mg/kg): 0.152 ± 0.019 g
- protection against the oedema produced by crystals of urate (in words) [1]: significant protection
- number of leucocytes with increasing amounts (in words) ([5]; Table 9): decreases with increasing amounts of colchicine
- Count of leucocytes after 72 hours [5, 12]: 457,000
- Count of leucocytes after 72 hours [5, 13]: 420,000
- Count of leucocytes after 72 hours [5, 14]: 397,000
- Count of leucocytes after 72 hours [5, 15]: 270,000
- Count of leucocytes after 72 hours [5, 16]: 550,000
- Count of leucocytes after 72 hours [5, 17]: 610,000
- Count of leucocytes after 72 hours [5, 18]: 240,000
- Count of leucocytes after 72 hours [5, 19]: 295,000
- Count of leucocytes after 72 hours [5, 20]: 205,000
- Count of leucocytes after 72 hours [5, 21]: 225,000 and 330,000
- number of leucocytes in absence or presence of substance (in words) ([5]; Table 11): remain substantially the same
- Basophils ([6]; 6 hours after administration): 0
- Eosinophils ([6]; 6 hours after administration): 0
- Lymphocytes [6, 22]: 92 and 81 and 84
- Neutrophils with non-segmented nucleus [6, 22]: 1 and 3
- Neutrophils with segmented nucleus [6, 22]: 6 and 16 and 17
- Basophils ([6]; before administration): 0
- Monocytes ([6]; before administration): 2
- Lymphocytes ([6]; before administration, 2 mg/kg): 94 and 83 and 87
- % phagocytosis ([7]; 0.004 μg of colchicine): 68.6 ± 3.7%
- % phagocytosis ([7]; 0.04 μg of colchicine): 54.2 ± 5.4%
- % phagocytosis ([7]; 0.4 μg of colchicine): 39.8 ± 1.2%
- LD50 [8]: 1 mg/kg
- lethal dose [9]: 6 mg
- LD50 [10]: 1.7 mg/kg
- LD50 [11]: 0.25 mg/kg

Source: patent US3997506A (priority 1974, dated 1976)
